Columns and labels:
[1] = tested on: HAUSP and MDM2 interaction in LS8817, LS0082, LS7785-1 and LS7785-10 cells; test: co-immunoprecipitation of HAUSP and MDM2; type: cell-based, human; conditions: two days PD0332991, then 5 μM MG132 for 2 hours; detected in untreated cells
Experimental: FIG. 25A-D. Turnover of MDM2 is regulated post-translationally. […] Extracts were prepared and MDM2 was immunoprecipitated and the presence of HAUSP and MDM2 in the precipitates were determined by immunoblot. IgG was used as a non-specific antibody control for the immunoprecipitation. […] Tubulin is a loading control. HAUSP levels were reduced with shRNA in the indicated cells lines and the effect on protein expression (C) and the accumulation of senescence-associated (3-galactosidase positive cells measured (D). The mean and standard deviation was compiled from at least two independent experiments with each cell line and a representative immunoblot is shown.

T98G glioma cells [2] = test: PD-induced growth arrest (BrdU incorporation); type: cell-based; conditions: BrdU incorporation 7 days after treatment
Experimental: (§1) Cell lines were maintained in DMEM High glucose (HG) supplemented with 10% heat-inactivated fetal bovine serum. Glioma cell lines, DKMG, SNB19, DBTRG-05MG, and […], were maintained in DMEM HG supplemented with 10% fetal bovine serum and 2 mM glutamine. The MCF7 breast cancer cell line was maintained in RPMI-1640 media supplemented with 10% fetal bovine serum and 2 mM glutamine.
(§2) shRNA were delivered in the pLKO.1 vector (Sigma) and infected cells selected using puromycin (1 μg/ml); infection with a virus carrying a scramble control ([…]) was used as a control in all experiments utilizing shRNA. Cell lines were treated with […] or shRNA directed against CDK4 ([…] (SEQ ID NO:4)), MDM2 (M376, […] (SEQ ID NO:5); M380, […] (SEQ ID NO:6)), HAUSP (4057, […] (SEQ ID NO:7); 845, […] (SEQ ID NO:8)) or CDK6 ([…] (SEQ ID NO:9)) for 48 hours to 7 days and stained with BrdU (20 μM for two hours) or annexin V as previously described (22, 48). […] was determined by staining with propidium iodine and FACS analyses (49).
(§3) Cells were stained with BrdU (20 μM for two hours) or annexin V as previously described (22, 48). […] was determined by staining with propidium iodine and FACS analyses (49).

SNB19 glioma cells [3] = test: PD-induced growth arrest (BrdU incorporation); type: cell-based; conditions: BrdU incorporation 7 days after treatment
Experimental: as §1, §2, §3

MCF7 breast cancer cells = test: senescence-associated β-galactosidase staining; type: cell-based
Experimental: (§4) Cells were plated at a concentration of 25,000 per well in a 4-well chamber slides (Lab-Tek) and treated for seven days with drug or shRNA as described above and stained for senescence-associated β-galactosidase (Cell Signaling kit #9860). Cell number was quantitated by DAPI staining and β-galactosidase staining quantitated as a proportion of total cells. Senescence associated heterochromatic foci were quantitated after cells were fixed with 4% paraformaldehyde, permeabilized with 0.1% Triton, blocked with 2% FBS, and stained with antibodies against HP1γ (1:5000 dilution, 2MOD-1G6 Millipore). Senescent cells were identified by immunofluorescence after treatment of slides with anti-mouse secondary antibodies and quantitation of focal SAHF as a percent of total cells (Leica Upright Confocal SP5 confocal microscope). Actin was marked using phalloidin staining (1:500, Invitrogen) and cells were counterstained with DAPI. Cell area was measured by with Metamorph software to calculate relative area per cell.

T98G glioma cells [4] = test: senescence-associated β-galactosidase staining; type: cell-based; conditions: after treatment
Experimental: as §4

SNB19 glioma cells [5] = test: senescence-associated β-galactosidase staining; type: cell-based
Experimental: as §4

DKMG glioma cells = test: senescence-associated β-galactosidase staining; type: cell-based
Experimental: as §4

DBTRG-05MG glioma cells = test: senescence-associated β-galactosidase staining; type: cell-based
Experimental: as §4

RB-negative cells = conditions: cited from earlier work
normal and tumor cells = conditions: both normal and tumor cells; cited from earlier work
[6] = tested on: seven RB-positive patient derived WD/DDLS cell lines; test: cell number by Coulter Counter; type: cell-based, human; conditions: asynchronously growing cells, counted daily for 4 days
[7] = tested on: CHK2 mobility and KAP1 phosphorylation in WD/DDLS cell lines; test: markers of ATM activity by immunoblot; type: cell-based, human; conditions: LS8817, LS141, LS8107, LS8313 and LS7785-1
From the text: Extracts from control and irradiated mouse embryo fibroblasts were included as a control. Tubulin is a control. (B) γH2AX and 53BP1 foci were scored in the indicated cell lines. As per (Doll et al., 2009; […] et al., 2012) having a cell with greater than 10 foci (white) is considered positive for DNA damage. As expected for WD/DDLS cell lines the basal level of DNA damage was quite high.

[8] = tested on: seven RB-positive patient derived WD/DDLS cell lines; test: cell cycle distribution, propidium iodine and flow cytometry; type: cell-based, human; conditions: two days of treatment
Experimental: Percentages annotated on graphs represent the mean of three or more independent experiments. Cells were stained with BrdU (20 μM for two hours) or annexin V as previously described (22, 48). […] was determined by staining with propidium iodine and FACS analyses (49).

[9] = tested on: MDM2 in LS8817 and LS0082 cells; test: MDM2 levels by immunoblot, responder cells; type: cell-based, human; conditions: two days
Experimental: (A) Immunoblot. […] Tubulin was a loading control. (B) Immunoblot.
Antibodies against CDK4 (3F121), MDM2 (N-20 and SMP14), total RB (IF8), Cyclin A (H432), p16 (C20), p53 (DO-1 and Bp53-12), tubulin (C20) and FLAG (M2) were obtained from Santa Cruz Biotechnology, phospho-Rb 780 (#9307) from Cell Signalling, and ARF (3642) from Abeam, HAUSP (A300-033A) from Bethyl Laboratories. Treated cells were lysed with buffer composed of 50 mM Tris-HCl, pH7.4, 250 mM NaCl, 5 mM EDTA, 0.5% NP40, 2 mM PMSF, and supplemented with protease inhibitors. Eighty micrograms of protein were resolved by SDS-PAGE and transferred to PVDF membranes. Membranes were incubated overnight with antibodies (1:1000). […] Pre-treatment biopsies were collected within two weeks of the first dose and post-treatment biopsies collected after at last three weeks of treatment. Extracts were prepared in 50 mM Tris-HCl, pH7.4, 150 mM NaCl, 1 mM EDTA, 1% NP40, 0.25% sodium deoxycholate and supplemented with mini-protease inhibitor cocktail (Roche). Tumor response was assessed by reference radiologist by CT scan every six weeks for 36 weeks, and every 12 weeks thereafter.

CC(=O)c1c(C)c2cnc(Nc3ccc(N4CCNCC4)cn3)nc2n(C2CCCC2)c1=O [PD0332991]
interaction of HAUSP and MDM2 detected by co-immunoprecipitation [1]: not in any of the cells treated
PD-induced growth arrest (T98G glioma cells [2]): + (BrdU incorporation is reduced at least 8X 7 days after treatment with the drug)
PD-induced growth arrest (SNB19 glioma cells [3]): + (BrdU incorporation is reduced at least 8X 7 days after treatment with the drug)
PD-induced SA-β-gal (MCF7 breast cancer cells; 7 days of treatment): Y (Y, yes: the number of SA-β-gal cells increases at least 10X after 7 days of treatment)
number of SA-β-gal cells (MCF7 breast cancer cells; seven days after exposure): significant increase
increase in the number of SA-β-gal cells (T98G glioma cells [4]): not observed
PD-induced SA-β-gal (SNB19 glioma cells [5]; 7 days of treatment): Y (Y, yes: the number of SA-β-gal cells increases at least 10X after 7 days of treatment)
number of SA-β-gal cells (SNB19 glioma cells [5]; seven days after exposure): significant increase
PD-induced SA-β-gal (DKMG glioma cells; 7 days of treatment): Y (Y, yes: the number of SA-β-gal cells increases at least 10X after 7 days of treatment)
number of SA-β-gal cells (DKMG glioma cells; seven days after exposure): significant increase
PD-induced SA-β-gal (DBTRG-05MG glioma cells; 7 days of treatment): Y (Y, yes: the number of SA-β-gal cells increases at least 10X after 7 days of treatment)
number of SA-β-gal cells (DBTRG-05MG glioma cells; seven days after exposure): significant increase
proliferation of RB-negative cells (RB-negative cells): no effect
cell cycle arrest (normal and tumor cells): G1 arrest
growth arrest [6]: growth arrest within a single cell cycle
CHK2 mobility or KAP1 phosphorylation, markers of ATM activity [7]: did not induce significant changes
cell cycle distribution [8]: accumulating in G0/G1
MDM2 reduction [9]: approximately three-fold

From US9889135B2, “Companion diagnostic for CDK4 inhibitors” (Memorial Sloan-Kettering Cancer Center, priority 2013, dated 2018)
